{"source": "ChEMBL document CHEMBL1914411", "about": "“Synthesis of lipophilic dimeric C-7/C-7-linked ciprofloxacin and C-6/C-6-linked levofloxacin derivatives. Versatile in vitro biological evaluations of monomeric and dimeric fluoroquinolone derivatives as potential antitumor, antibacterial or antimycobacterial agents” (Eur J Med Chem, 2011)", "key": {"Pseudomonas aeruginosa": {"system": "Pseudomonas aeruginosa", "assay": "Antimicrobial activity against Pseudomonas aeruginosa CIP 82.118 after 18 to 24 hrs by broth microdilution method", "type": "functional"}, "Escherichia coli": {"system": "Escherichia coli", "assay": "Antimicrobial activity against Escherichia coli CIP 53126 after 18 to 24 hrs by broth microdilution method", "type": "functional"}, "[1]": {"system": "Mycobacterium tuberculosis", "assay": "Antimycobacterial activity against Mycobacterium tuberculosis H37Rv assessed as growth inhibition at 10 uM after 6 days by MTT colorimetric microassay", "type": "functional", "conditions": "144 h, read-out: GI"}, "Enterococcus hirae": {"system": "Enterococcus hirae", "assay": "Antimicrobial activity against Enterococcus hirae CIP 5855 after 18 to 24 hrs by broth microdilution method", "type": "functional"}, "[2]": {"system": "Mycobacterium tuberculosis", "assay": "Antimycobacterial activity against Mycobacterium tuberculosis H37Rv assessed as growth inhibition at 1 uM after 6 days by MTT colorimetric microassay", "type": "functional", "conditions": "for inhibition of growth at 1 µM: 144 h, read-out: GI"}, "[3]": {"system": "Mycobacterium tuberculosis", "assay": "Antimycobacterial activity against Mycobacterium tuberculosis H37Rv assessed as growth inhibition at 0.1 uM after 6 days by MTT colorimetric microassay", "type": "functional, organism-based"}, "[4]": {"system": "Mycobacterium tuberculosis", "assay": "Antimycobacterial activity against Mycobacterium tuberculosis H37Rv after 6 days by MTT colorimetric microassay", "type": "functional, organism-based", "conditions": "144 h"}, "Staphylococcus aureus": {"system": "Staphylococcus aureus", "assay": "Antimicrobial activity against Staphylococcus aureus CIP 4.83 after 18 to 24 hrs by broth microdilution method", "type": "functional"}, "[5]": {"assay": "Antiproliferative activity against human U373MG cells after 120 hrs by MTT asasy", "type": "functional, cell-based, U-373MG ATCC", "conditions": "U373 MG"}}, "note": "The source made the active and inactive calls."}
{"compound": "CCCCCCCCCCNC(=O)c1cn2c3c(c(N4CCN(C)CC4)c(F)cc3c1=O)OC[C@@H]2C", "values": [{"measurement": "MBC", "setting": "Pseudomonas aeruginosa", "result": 250, "unit": "µM"}, {"measurement": "MIC", "setting": "Pseudomonas aeruginosa", "result": 62.5, "unit": "µM"}, {"measurement": "MBC", "setting": "Escherichia coli", "result": 500, "unit": "µM"}, {"measurement": "MIC", "setting": "Escherichia coli", "result": 125, "unit": "µM"}, {"measurement": "inhibition of growth at 10 µM", "setting": "[1]", "result": "> 95", "unit": "%"}, {"measurement": "MBC", "setting": "Enterococcus hirae", "result": 15.6, "unit": "µM"}, {"measurement": "MIC", "setting": "Enterococcus hirae", "result": 7.8, "unit": "µM"}, {"measurement": "inhibition of growth at 1 µM", "setting": "[2]", "result": 5, "unit": "%"}, {"measurement": "growth inhibition (GI)", "setting": "[3]", "result": "inactive"}, {"measurement": "IC50", "setting": "[4]", "result": 5.8, "unit": "µM"}, {"measurement": "MIC", "setting": "[4]", "result": 10, "unit": "µM"}, {"measurement": "MBC", "setting": "Staphylococcus aureus", "result": 7.8, "unit": "µM"}, {"measurement": "MIC", "setting": "Staphylococcus aureus", "result": 7.8, "unit": "µM"}]}
{"compound": "CCCC(=O)OCOC(=O)c1cn2c3c(c(N4CCN(C)CC4)c(F)cc3c1=O)OC[C@@H]2C", "values": [{"measurement": "inhibition of growth at 10 µM", "setting": "[1]", "result": "> 95", "unit": "%"}, {"measurement": "inhibition of growth at 1 µM", "setting": "[2]", "result": 74, "unit": "%"}, {"measurement": "growth inhibition (GI)", "setting": "[3]", "result": "inactive"}, {"measurement": "IC50", "setting": "[4]", "result": 1.3, "unit": "µM"}, {"measurement": "MIC", "setting": "[4]", "result": 2.5, "unit": "µM"}]}
{"compound": "CCCCCCCCCCCCCC(=O)OCOC(=O)c1cn2c3c(c(N4CCN(C)CC4)c(F)cc3c1=O)OC[C@@H]2C", "values": [{"measurement": "MBC", "setting": "Pseudomonas aeruginosa", "result": 250, "unit": "µM"}, {"measurement": "MIC", "setting": "Pseudomonas aeruginosa", "result": 62.5, "unit": "µM"}, {"measurement": "MBC", "setting": "Escherichia coli", "result": 15.6, "unit": "µM"}, {"measurement": "MIC", "setting": "Escherichia coli", "result": 15.6, "unit": "µM"}, {"measurement": "inhibition of growth at 10 µM", "setting": "[1]", "result": "> 95", "unit": "%"}, {"measurement": "MBC", "setting": "Enterococcus hirae", "result": 15.6, "unit": "µM"}, {"measurement": "MIC", "setting": "Enterococcus hirae", "result": 15.6, "unit": "µM"}, {"measurement": "growth inhibition (GI)", "setting": "[3]", "result": "inactive"}, {"measurement": "IC50", "setting": "[4]", "result": 1.3, "unit": "µM"}, {"measurement": "MIC", "setting": "[4]", "result": 2.5, "unit": "µM"}, {"measurement": "MBC", "setting": "Staphylococcus aureus", "result": 3.9, "unit": "µM"}, {"measurement": "MIC", "setting": "Staphylococcus aureus", "result": 7.8, "unit": "µM"}]}
{"compound": "CCCCCCCCCCCC(=O)N1CCN(c2cc3c(cc2F)c(=O)c(C(=O)O)cn3C2CC2)CC1", "values": [{"measurement": "MBC", "setting": "Pseudomonas aeruginosa", "result": 250, "unit": "µM"}, {"measurement": "MIC", "setting": "Pseudomonas aeruginosa", "result": 62.5, "unit": "µM"}, {"measurement": "MBC", "setting": "Escherichia coli", "result": 7.8, "unit": "µM"}, {"measurement": "MIC", "setting": "Escherichia coli", "result": 7.8, "unit": "µM"}, {"measurement": "inhibition of growth at 10 µM", "setting": "[1]", "result": "> 95", "unit": "%"}, {"measurement": "MBC", "setting": "Enterococcus hirae", "result": 7.8, "unit": "µM"}, {"measurement": "MIC", "setting": "Enterococcus hirae", "result": 7.8, "unit": "µM"}, {"measurement": "inhibition of growth at 1 µM", "setting": "[2]", "result": 20, "unit": "%"}, {"measurement": "growth inhibition (GI)", "setting": "[3]", "result": "inactive"}, {"measurement": "MBC", "setting": "Staphylococcus aureus", "result": 7.8, "unit": "µM"}, {"measurement": "MIC", "setting": "Staphylococcus aureus", "result": 3.9, "unit": "µM"}]}
{"compound": "CCCCCCCCNC(=O)c1cn2c3c(c(N4CCN(C)CC4)c(F)cc3c1=O)OC[C@@H]2C", "values": [{"measurement": "MBC", "setting": "Pseudomonas aeruginosa", "result": 250, "unit": "µM"}, {"measurement": "MIC", "setting": "Pseudomonas aeruginosa", "result": 31.2, "unit": "µM"}, {"measurement": "MBC", "setting": "Escherichia coli", "result": 500, "unit": "µM"}, {"measurement": "MIC", "setting": "Escherichia coli", "result": 125, "unit": "µM"}, {"measurement": "IC50", "setting": "[5]", "result": 2.3, "unit": "µM"}, {"measurement": "inhibition of growth at 10 µM", "setting": "[1]", "result": "> 95", "unit": "%"}, {"measurement": "MBC", "setting": "Enterococcus hirae", "result": 31.2, "unit": "µM"}, {"measurement": "MIC", "setting": "Enterococcus hirae", "result": 31.2, "unit": "µM"}, {"measurement": "growth inhibition (GI)", "setting": "[3]", "result": "inactive"}, {"measurement": "MBC", "setting": "Staphylococcus aureus", "result": 31.2, "unit": "µM"}, {"measurement": "MIC", "setting": "Staphylococcus aureus", "result": 31.2, "unit": "µM"}]}
{"compound": "CCCCCCCCCCCCCCCC(=O)OCOC(=O)c1cn2c3c(c(N4CCN(C)CC4)c(F)cc3c1=O)OC[C@@H]2C", "values": [{"measurement": "growth inhibition (GI)", "setting": "[2]", "result": "inactive"}, {"measurement": "growth inhibition (GI)", "setting": "[3]", "result": "inactive"}]}
{"compound": "CCCCCCCCCCCCCCCCCCCC(=O)OCOC(=O)c1cn2c3c(c(N4CCN(C)CC4)c(F)cc3c1=O)OC[C@@H]2C", "values": [{"measurement": "growth inhibition (GI)", "setting": "[2]", "result": "inactive"}, {"measurement": "growth inhibition (GI)", "setting": "[3]", "result": "inactive"}]}
{"compound": "CCCCCCCCCCCCCNC(=O)c1cn2c3c(c(N4CCN(C)CC4)c(F)cc3c1=O)OC[C@@H]2C", "values": [{"measurement": "inhibition of growth at 10 µM", "setting": "[1]", "result": "> 95", "unit": "%"}, {"measurement": "inhibition of growth at 1 µM", "setting": "[2]", "result": 5, "unit": "%"}, {"measurement": "growth inhibition (GI)", "setting": "[3]", "result": "inactive"}, {"measurement": "MIC", "setting": "[4]", "result": "> 10", "unit": "µM"}]}
{"compound": "CCCCCCCCCC(=O)N1CCN(c2cc3c(cc2F)c(=O)c(C(=O)O)cn3C2CC2)CC1", "values": [{"measurement": "MBC", "setting": "Pseudomonas aeruginosa", "result": 250, "unit": "µM"}, {"measurement": "MIC", "setting": "Pseudomonas aeruginosa", "result": 125, "unit": "µM"}, {"measurement": "MBC", "setting": "Escherichia coli", "result": 500, "unit": "µM"}, {"measurement": "MIC", "setting": "Escherichia coli", "result": 125, "unit": "µM"}, {"measurement": "IC50", "setting": "[5]", "result": 5, "unit": "µM"}, {"measurement": "inhibition of growth at 10 µM", "setting": "[1]", "result": "> 95", "unit": "%"}, {"measurement": "MBC", "setting": "Enterococcus hirae", "result": 15.6, "unit": "µM"}, {"measurement": "MIC", "setting": "Enterococcus hirae", "result": 15.6, "unit": "µM"}, {"measurement": "inhibition of growth at 1 µM", "setting": "[2]", "result": 20, "unit": "%"}, {"measurement": "growth inhibition (GI)", "setting": "[3]", "result": "inactive"}, {"measurement": "MBC", "setting": "Staphylococcus aureus", "result": 62.5, "unit": "µM"}, {"measurement": "MIC", "setting": "Staphylococcus aureus", "result": 7.8, "unit": "µM"}]}
{"compound": "CCCCCCCCCCCCCCCNC(=O)c1cn2c3c(c(N4CCN(C)CC4)c(F)cc3c1=O)OC[C@@H]2C", "values": [{"measurement": "MBC", "setting": "Pseudomonas aeruginosa", "result": 250, "unit": "µM"}, {"measurement": "MIC", "setting": "Pseudomonas aeruginosa", "result": 62.5, "unit": "µM"}, {"measurement": "MBC", "setting": "Escherichia coli", "result": 500, "unit": "µM"}, {"measurement": "MIC", "setting": "Escherichia coli", "result": 125, "unit": "µM"}, {"measurement": "inhibition of growth at 10 µM", "setting": "[1]", "result": "> 95", "unit": "%"}, {"measurement": "MBC", "setting": "Enterococcus hirae", "result": 7.8, "unit": "µM"}, {"measurement": "MIC", "setting": "Enterococcus hirae", "result": 7.8, "unit": "µM"}, {"measurement": "inhibition of growth at 1 µM", "setting": "[2]", "result": 5, "unit": "%"}, {"measurement": "growth inhibition (GI)", "setting": "[3]", "result": "inactive"}, {"measurement": "IC50", "setting": "[4]", "result": 6.5, "unit": "µM"}, {"measurement": "MIC", "setting": "[4]", "result": 10, "unit": "µM"}, {"measurement": "MBC", "setting": "Staphylococcus aureus", "result": 15.6, "unit": "µM"}, {"measurement": "MIC", "setting": "Staphylococcus aureus", "result": 15.6, "unit": "µM"}]}
